Where a SMILES comes first, the peptide text is derived from it.
Key:
Test in all cases: biochemical
Assay type in all cases: binding
[1] = target: HLA B*0801 (Homo sapiens, UniProt P01889, A93T/A95T/D138N/E176V/E187T/K202T/Q94N/R180D/S35A/V36M/Y33D/Y91F)
[2] = target: HLA B*1501 (Homo sapiens, UniProt P01889, A329T/A93T/A95T/C349S/D201E/D98Y/E187L/E204Q/E69M/E70A/K202T/N87E/Q94N/R155S/R180W/S121R/S35A/S48A/V306I/V36M/Y140S/Y91S)
[3] = target: HLA A*3201 (Homo sapiens, UniProt P04439, A270S/D101S/D185E/E176V/E277Q/F133L/G103R/G107R/G231S/H175R/I121M/I218V/I322F/K168Q/L105A/L300P/L318F/M331R/P208A/P217A/Q94H/R106L/R138Q/S129P/T104I/T323A/T345S/V100E/V321M/V358M)
[4] = target: HLA A*3001 (Homo sapiens, UniProt P04439, D140H/D185E/E176W/F33S/G80R/H175R/K168Q/R138E/R41S)
[5] = target: HLA B*1503 (Homo sapiens, UniProt P01889, A329T/A93T/A95T/C349S/D201E/D98Y/E187L/E204Q/K202T/N87E/Q94N/R155S/R180L/S121R/S35A/V306I/V36M/Y140S/Y91S)

HLA A*3001, sequence (P04439 25-365 limits assumed, stated change not applied): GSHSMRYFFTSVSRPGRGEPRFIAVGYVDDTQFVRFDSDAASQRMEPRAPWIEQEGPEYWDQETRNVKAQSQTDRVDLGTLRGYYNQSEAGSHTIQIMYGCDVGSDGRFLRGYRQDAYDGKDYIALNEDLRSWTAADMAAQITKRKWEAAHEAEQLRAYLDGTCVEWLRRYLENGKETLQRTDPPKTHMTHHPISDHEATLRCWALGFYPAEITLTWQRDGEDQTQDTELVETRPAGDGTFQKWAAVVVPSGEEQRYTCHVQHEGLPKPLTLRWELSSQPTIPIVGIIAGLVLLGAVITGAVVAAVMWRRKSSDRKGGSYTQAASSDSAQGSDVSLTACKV

Structure (SMILES)	IC50 [1] [nM]	IC50 [2] [nM]	IC50 [3] [nM]	IC50 [4] [nM]	IC50 [5] [nM]
CSCC[C@H](NC(=O)[C@H](CCCNC(=N)N)NC(=O)[C@H](CCCCN)NC(=O)[C@H](CO)NC(=O)[C@H](CCCCN)NC(=O)[C@H](C)NC(=O)[C@@H](N)Cc1ccc(O)cc1)C(=O)N[C@@H](C)C(=O)N[C@@H](CCC(=O)O)C(=O)O [3102.0786] (H-YAKSKRMAE-OH)	31	–	–	–	–
CC(C)C[C@H](NC(=O)[C@@H](N)CC(N)=O)C(=O)N[C@@H](CCCNC(=N)N)C(=O)N[C@@H](CS)C(=O)N[C@@H](Cc1c[nH]cn1)C(=O)N[C@@H](CO)C(=O)N[C@@H](C)C(=O)N[C@@H](Cc1c[nH]cn1)C(=O)N[C@H](C(=O)O)C(C)C [3102.0700] (H-NLRCHSAHV-OH)	1.2	–	–	–	–
CC[C@H](C)[C@H](NC(=O)[C@H](CCCCN)NC(=O)[C@@H](NC(=O)[C@H](CCCCN)NC(=O)[C@@H](NC(=O)[C@@H](N)CC(=O)O)[C@@H](C)CC)[C@@H](C)O)C(=O)N[C@@H](CCSC)C(=O)N[C@H](C(=O)N[C@@H](CC(C)C)C(=O)O)C(C)C [3102.0683] (H-DIKTKIMVL-OH)	73	–	–	–	–
CC(C)C[C@H](NC(=O)[C@H](CC(N)=O)NC(=O)[C@H](Cc1ccc(O)cc1)NC(=O)[C@H](Cc1ccccc1)NC(=O)[C@H](Cc1c[nH]cn1)NC(=O)[C@H](CC(=O)O)NC(=O)[C@H](CCCNC(=N)N)NC(=O)[C@H](CC(C)C)NC(=O)[C@@H](N)Cc1ccc(O)cc1)C(=O)O [3102.0548] (H-YLRDHFYNL-OH)	8.3	–	–	–	–
CC(C)C[C@H](NC(=O)[C@H](CCCNC(=N)N)NC(=O)[C@H](CCCCN)NC(=O)[C@H](CC(N)=O)NC(=O)[C@H](CCCNC(=N)N)NC(=O)[C@H](CC(C)C)NC(=O)[C@H](CCCNC(=N)N)NC(=O)[C@H](CCCNC(=N)N)NC(=O)[C@@H](N)Cc1c[nH]cn1)C(=O)O [3102.0641] (H-HRRLRNKRL-OH)	28	–	–	–	–
CC(C)C[C@H](NC(=O)[C@@H](N)CCC(=O)O)C(=O)N[C@@H](CCCCN)C(=O)N[C@@H](CCC(=O)O)C(=O)N[C@@H](CCCCN)C(=O)N[C@@H](CO)C(=O)N[C@H](C(=O)N[C@@H](CCCCN)C(=O)N[C@@H](Cc1ccccc1)C(=O)O)C(C)C [3102.0712] (H-ELKEKSVKF-OH)	3.2	–	–	–	–
CC[C@H](C)[C@H](NC(=O)[C@H](CO)NC(=O)[C@H](CCSC)NC(=O)[C@H](CC(C)C)NC(=O)[C@H](CCCNC(=N)N)NC(=O)[C@H](CC(N)=O)NC(=O)[C@H](CO)NC(=O)[C@H](CC(N)=O)NC(=O)[C@@H](N)CO)C(=O)O [3102.0713] (H-SNSNRLMSI-OH)	10	–	–	–	–
CC[C@H](C)[C@H](NC(=O)[C@H](CCCCN)NC(=O)[C@@H](NC(=O)[C@H](CCCNC(=N)N)NC(=O)[C@H](CC(C)C)NC(=O)[C@H](CC(N)=O)NC(=O)[C@H](CC(C)C)NC(=O)[C@@H](N)CO)[C@@H](C)CC)C(=O)N[C@@H](CC(C)C)C(=O)O [3102.0536] (H-SLNLRIKIL-OH)	92	–	–	–	–
CSCC[C@H](NC(=O)[C@@H]1CCCN1C(=O)[C@@H](N)CC(C)C)C(=O)N[C@@H](CC(C)C)C(=O)N[C@@H](Cc1ccc(O)cc1)C(=O)N[C@@H](Cc1ccccc1)C(=O)N[C@@H](CC(C)C)C(=O)N[C@@H](Cc1ccc(O)cc1)C(=O)N[C@H](C(=O)O)C(C)C [3102.0703] (H-LPMLYFLYV-OH)	2.5	–	–	–	–
CC[C@H](C)[C@H](NC(=O)[C@@H](NC(=O)[C@@H](NC(=O)[C@@H]1CCCN1C(=O)[C@H](CCCNC(=N)N)NC(=O)[C@H](Cc1ccccc1)NC(=O)[C@H](Cc1ccccc1)NC(=O)[C@@H](NC(=O)[C@@H](N)CCCCN)[C@@H](C)CC)[C@@H](C)O)[C@@H](C)O)C(=O)O [3102.0470] (H-KIFFRPTTI-OH)	–	93	1.1	17	–
C[C@H](NC(=O)[C@H](Cc1ccccc1)NC(=O)[C@H](CO)NC(=O)[C@H](CS)NC(=O)[C@H](CCCNC(=N)N)NC(=O)[C@H](Cc1ccc(O)cc1)NC(=O)[C@H](CCCNC(=N)N)NC(=O)[C@H](CCCNC(=N)N)NC(=O)[C@@H](N)CO)C(=O)O [3102.0625] (H-SRRYRCSFA-OH)	52	–	–	–	–
CC[C@H](C)[C@H](NC(=O)[C@H](CO)NC(=O)[C@H](CC(C)C)NC(=O)[C@H](CCSC)NC(=O)[C@H](CO)NC(=O)[C@H](CCCNC(=N)N)NC(=O)[C@@H]1CCCN1C(=O)[C@@H](N)Cc1ccccc1)C(=O)N[C@@H](Cc1ccccc1)C(=O)O [3102.0543] (H-FPRSMLSIF-OH)	9.9	–	–	–	–
CC[C@H](C)[C@H](NC(=O)[C@H](CCCNC(=N)N)NC(=O)[C@H](Cc1ccc(O)cc1)NC(=O)[C@H](CCCCN)NC(=O)[C@H](CC(N)=O)NC(=O)[C@@H](N)CO)C(=O)N[C@@H](CCCCN)C(=O)N[C@@H](CO)C(=O)N[C@H](C(=O)O)C(C)C [3102.0666] (H-SNKYRIKSV-OH)	2.7	–	–	–	–
CC[C@H](C)[C@H](N)C(=O)N[C@H](C(=O)N[C@@H](CC(C)C)C(=O)N[C@H](C(=O)N[C@@H](CC(N)=O)C(=O)N[C@H](C(=O)N[C@H](C(=O)N[C@@H](CC(N)=O)C(=O)N[C@H](C(=O)O)[C@@H](C)CC)C(C)C)C(C)C)[C@@H](C)O)[C@@H](C)O [3102.0320] (H-ITLTNVVNI-OH)	–	12	77	35	22
CC[C@H](C)[C@H](NC(=O)[C@H](CC(N)=O)NC(=O)[C@H](Cc1ccccc1)NC(=O)[C@H](CCSC)NC(=O)[C@@H](N)CC(N)=O)C(=O)N[C@@H](CO)C(=O)N[C@@H](Cc1ccccc1)C(=O)N[C@@H](CCCNC(=N)N)C(=O)N[C@@H](Cc1ccccc1)C(=O)O [3102.0348] (H-NMFNISFRF-OH)	–	43	3.6	27	19
CC(C)C[C@H](NC(=O)[C@@H](N)C(C)C)C(=O)N[C@@H](Cc1ccccc1)C(=O)N[C@@H](CCC(=O)O)C(=O)N[C@H](C(=O)N[C@@H](Cc1ccccc1)C(=O)N[C@H](C(=O)N[C@H](C(=O)N[C@@H](Cc1ccccc1)C(=O)O)C(C)C)C(C)C)C(C)C [3102.0818] (H-VLFEVFVVF-OH)	–	2.9	7.8	–	4.9
CC[C@H](C)[C@H](NC(=O)[C@H](CC(C)C)NC(=O)[C@H](Cc1ccccc1)NC(=O)[C@@H](NC(=O)[C@H](CO)NC(=O)[C@H](Cc1ccc(O)cc1)NC(=O)[C@H](CC(C)C)NC(=O)[C@@H](N)CCCNC(=N)N)[C@@H](C)CC)C(=O)N[C@@H](Cc1ccccc1)C(=O)O [3102.1049] (H-RLYSIFLIF-OH)	–	3.4	6.9	–	0.16
CSCC[C@H](NC(=O)[C@@H](N)Cc1c[nH]cn1)C(=O)N[C@@H](C)C(=O)N[C@@H](Cc1ccc(O)cc1)C(=O)N[C@@H](CO)C(=O)N[C@@H](Cc1ccccc1)C(=O)N[C@@H](CCC(N)=O)C(=O)N[C@H](C(=O)N[C@@H](Cc1ccccc1)C(=O)O)[C@@H](C)O [3102.1331] (H-HMAYSFQTF-OH)	–	0.25	16	–	0.28
CC[C@H](C)[C@H](N)C(=O)N[C@@H](C)C(=O)N[C@@H](CO)C(=O)N[C@H](C(=O)N[C@@H](CC(C)C)C(=O)N[C@H](C(=O)N[C@H](C(=O)N[C@H](C(=O)N[C@H](C(=O)O)[C@@H](C)CC)[C@@H](C)O)C(C)C)[C@@H](C)CC)[C@@H](C)O [3102.0358] (H-IASTLIVTI-OH)	–	156	74	10	–
CC[C@H](C)[C@H](NC(=O)[C@@H](NC(=O)[C@@H](N)CCCCN)[C@@H](C)O)C(=O)N[C@@H](CC(N)=O)C(=O)N[C@@H](C)C(=O)N[C@@H](CC(C)C)C(=O)N[C@H](C(=O)N[C@@H](Cc1ccc(O)cc1)C(=O)N[C@@H](Cc1ccccc1)C(=O)O)C(C)C [3102.0359] (H-KTINALVYF-OH)	–	0.37	8.7	–	23
CC(C)C[C@H](NC(=O)[C@@H](NC(=O)[C@@H](NC(=O)[C@H](CO)NC(=O)[C@H](CC(N)=O)NC(=O)[C@H](CCC(N)=O)NC(=O)[C@@H](N)CC(C)C)C(C)C)C(C)C)C(=O)N[C@@H](CCC(N)=O)C(=O)N[C@@H](Cc1ccccc1)C(=O)O [3102.1263] (H-LQNSVVLQF-OH)	–	1.5	7.3	–	6.2
CC[C@H](C)[C@H](NC(=O)[C@@H](N)CCCCN)C(=O)NCC(=O)N[C@@H](CCSC)C(=O)N[C@@H](Cc1ccccc1)C(=O)N[C@@H](CC(N)=O)C(=O)N[C@@H](CC(C)C)C(=O)N[C@H](C(=O)N[C@@H](Cc1ccccc1)C(=O)O)[C@@H](C)O [3102.0341] (H-KIGMFNLTF-OH)	–	0.21	0.27	–	13
CC[C@H](C)[C@H](NC(=O)[C@@H](N)CCC(N)=O)C(=O)N[C@H](C(=O)N[C@@H](C)C(=O)N[C@@H](Cc1ccc(O)cc1)C(=O)N[C@@H](Cc1ccccc1)C(=O)N[C@@H](CO)C(=O)N[C@@H](CCC(=O)O)C(=O)N[C@@H](Cc1ccccc1)C(=O)O)C(C)C [3102.0816] (H-QIVAYFSEF-OH)	–	1.4	70	–	7.9
CC[C@H](C)[C@H](NC(=O)[C@H](CCCCN)NC(=O)[C@H](CC(N)=O)NC(=O)[C@H](CO)NC(=O)[C@H](Cc1ccc(O)cc1)NC(=O)[C@H](CCCCN)NC(=O)[C@H](CC(C)C)NC(=O)[C@@H](NC(=O)[C@@H](N)CCCCN)[C@@H](C)O)C(=O)O [3102.0326] (H-KTLKYSNKI-OH)	–	124	1.9	38	–

Reference: publication PMC2248166, “Quantitative peptide binding motifs for 19 human and mouse MHC class I molecules derived using positional scanning combinatorial peptide libraries” (Immunome Research, 2008)
